# Laboratory results: patent publication US20230129034A1, “TREATMENT OF DISEASE WITH ESTERS OF SELECTIVE RXR AGONISTS” (Io Therapeutics, Inc., priority 2017, published 2023)
# Entries after “also recorded” stand apart in the source; their conditions may differ.
# Columns and labels:
# Th17 cells = test: Th17 cell differentiation / IL-17 production in vitro; type: cell-based
# FXR/RXR = target: T1, FXR/RXR (Homo sapiens, UniProt P19793); test: Permissive heterodimer transactivation assay, CV-1 cells, 3x(IBABP/IRI)-tk-Luc; type: cell-based; details: 20 hr, luciferase vs GW4064
# T1 construct: expressed in transfected cells; host or cells: CV-1
# Source text: (§1) For PPARy: CV-1 cells were transfected with 3x(rAOX/DR1)-tk-Luc reporter gene and an expression vector for PPARy. For FXR:CV-1 cells were transfected with 3x(IBABP/IRI)-tk-Luc reporter gene and vectors for FXR and RXRα. For LXR:CV-1 cells were transfected with 3x(PLTP/LXRE)-tk-Luc reporter gene with vectors for LXRα or LXRβ. For Nurr1: COS7 cells were transfected with 3xNBRE-tk-luc reporter gene and full length Nurr-1 with or without full-length RXRα plasmid. […] Luciferase data were normalized to co-transfected β-gal activity. Luciferase activity was expressed as percent of maximal activity obtained using specific agonists. Rosiglitazone (PPARy), GW4064 (FXR), T0901317 (LXR).
# LXRα/RXR = test: Permissive heterodimer transactivation assay, CV-1 cells, 3x(PLTP/LXRE)-tk-Luc; type: cell-based; details: 20 hr, luciferase vs T0901317
# Source text: as §1
# LXRβ/RXR = test: as above; type: cell-based; details: 20 hr, luciferase vs T0901317
# Source text: as §1
# EAE in B6 mice = test: EAE dose titration experiment in B6 mice with spleen and CNS cell analysis; type: in vivo; details: for EAE disease overall, dose titration: 50 µg, 100 µg or 200 µg every day from day 8
# Experimental: A dose titration experiment was also conducted in EAE mice. EAE was induced in 28 B6 mice with MOG/CFA and PT as above. Mice were scored on day 7 as indicated above and divided into groups by score so means are as equal as possible.
# At the completion of the experiment, the vehicle control and 200 µg/day groups were euthanized and spleen and CNS samples obtained.
# Nurr1/RXR heterodimer = target: T2, Nurr1/RXR heterodimer (Homo sapiens, UniProt P19793); test: Nurr1/RXR transactivation assay, COS7 cells, 3xNBRE-tk-luc; type: cell-based; details: for activation of the Nurr1/RXR heterodimer: COS7 cells, 20 hr
# T2 construct: full length Nurr-1 with or without full-length RXRα plasmid; expressed in transfected cells; host or cells: COS7
# Source text: as §1
# RXRγ = target: T3, RXRγ (Homo sapiens, UniProt P48443); test: Competitive displacement of [3H]-9CRA from purified receptor; details: 10 nM [3H]-9CRA; read-out: RXR Binding Affinity Ki (nM) RXRγ
# T3 construct: an expression construct including a full length RXRα, RXRβ, or RXRy; expressed in transfected cells; host or cells: CV-1
# T3 sequence (P48443 1-463): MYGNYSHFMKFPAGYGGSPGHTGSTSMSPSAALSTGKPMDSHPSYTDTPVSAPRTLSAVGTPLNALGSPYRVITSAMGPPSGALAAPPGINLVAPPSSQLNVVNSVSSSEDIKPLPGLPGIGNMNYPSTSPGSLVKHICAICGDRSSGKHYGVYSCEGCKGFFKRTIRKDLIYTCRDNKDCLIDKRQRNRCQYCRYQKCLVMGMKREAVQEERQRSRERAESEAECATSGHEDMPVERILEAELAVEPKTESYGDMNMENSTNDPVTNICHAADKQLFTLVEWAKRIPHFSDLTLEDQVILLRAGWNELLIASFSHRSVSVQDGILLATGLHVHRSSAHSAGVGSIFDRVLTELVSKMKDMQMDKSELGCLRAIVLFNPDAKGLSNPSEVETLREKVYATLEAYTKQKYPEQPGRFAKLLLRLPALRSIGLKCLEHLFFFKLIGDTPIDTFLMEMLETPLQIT
# Source text: (§2) Standard errors (±) among independent experiments are indicated.
# RXRα = target: T4, RXRα (Homo sapiens, UniProt P19793); test: as above; details: 10 nM [3H]-9CRA; read-out: RXR Binding Affinity Ki (nM) RXRα
# T4 construct: an expression construct including a full length RXRα, RXRβ, or RXRy; expressed in transfected cells; host or cells: CV-1
# T4 sequence (P19793 1-462): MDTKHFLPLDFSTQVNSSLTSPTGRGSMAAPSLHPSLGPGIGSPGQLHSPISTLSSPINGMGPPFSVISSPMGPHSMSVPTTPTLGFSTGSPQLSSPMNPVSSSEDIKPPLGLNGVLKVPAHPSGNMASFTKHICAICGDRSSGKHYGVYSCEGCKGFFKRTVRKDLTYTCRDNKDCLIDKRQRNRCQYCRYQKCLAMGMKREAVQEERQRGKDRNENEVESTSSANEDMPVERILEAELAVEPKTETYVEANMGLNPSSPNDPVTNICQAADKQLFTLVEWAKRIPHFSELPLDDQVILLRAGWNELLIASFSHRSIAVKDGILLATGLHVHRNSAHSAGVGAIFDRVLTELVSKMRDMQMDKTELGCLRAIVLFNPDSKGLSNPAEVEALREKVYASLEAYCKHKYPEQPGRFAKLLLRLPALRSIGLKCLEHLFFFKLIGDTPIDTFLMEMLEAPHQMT
# Source text: as §2
# RXRβ = target: T5, RXRβ (Homo sapiens, UniProt P28702); test: as above; details: 10 nM [3H]-9CRA; read-out: RXR Binding Affinity Ki (nM) RXRβ
# T5 construct: an expression construct including a full length RXRα, RXRβ, or RXRy; expressed in transfected cells; host or cells: CV-1
# T5 sequence (P28702 1-533): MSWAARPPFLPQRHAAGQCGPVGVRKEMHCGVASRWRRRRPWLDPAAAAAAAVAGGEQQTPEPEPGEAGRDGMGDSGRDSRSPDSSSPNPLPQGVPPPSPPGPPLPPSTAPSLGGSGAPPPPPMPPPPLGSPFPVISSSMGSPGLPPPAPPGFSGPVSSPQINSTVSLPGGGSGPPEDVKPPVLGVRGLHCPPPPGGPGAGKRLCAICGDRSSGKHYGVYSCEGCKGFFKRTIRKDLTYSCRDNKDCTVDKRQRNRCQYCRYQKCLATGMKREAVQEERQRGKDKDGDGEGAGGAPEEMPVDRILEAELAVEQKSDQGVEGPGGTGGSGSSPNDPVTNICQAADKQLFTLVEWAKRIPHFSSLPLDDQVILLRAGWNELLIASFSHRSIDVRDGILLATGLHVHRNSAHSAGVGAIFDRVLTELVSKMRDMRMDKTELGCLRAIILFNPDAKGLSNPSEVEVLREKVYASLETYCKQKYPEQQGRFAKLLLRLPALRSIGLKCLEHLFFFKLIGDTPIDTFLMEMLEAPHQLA
# Source text: as §2
# RARγ = RARγ (Homo sapiens, UniProt P13631); test: Competitive displacement of [3H]-ATRA from purified receptor; details: 5 nM [3H]-ATRA; read-out: RAR Binding Affinity Ki (nM) RARγ
# Source text: as §2
# RARα = target: T6, RARα (Homo sapiens, UniProt P10276); test: as above; details: 5 nM [3H]-ATRA; read-out: RAR Binding Affinity Ki (nM) RARα
# T6 construct: made in house; host or cells: SF21 insect cells (baculovirus)
# Source text: as §2
# [1] = 200 µg/day, restimulation with PMA/Ionomycin
# T2 sequence (P43354 whole entry partner, one chain of several): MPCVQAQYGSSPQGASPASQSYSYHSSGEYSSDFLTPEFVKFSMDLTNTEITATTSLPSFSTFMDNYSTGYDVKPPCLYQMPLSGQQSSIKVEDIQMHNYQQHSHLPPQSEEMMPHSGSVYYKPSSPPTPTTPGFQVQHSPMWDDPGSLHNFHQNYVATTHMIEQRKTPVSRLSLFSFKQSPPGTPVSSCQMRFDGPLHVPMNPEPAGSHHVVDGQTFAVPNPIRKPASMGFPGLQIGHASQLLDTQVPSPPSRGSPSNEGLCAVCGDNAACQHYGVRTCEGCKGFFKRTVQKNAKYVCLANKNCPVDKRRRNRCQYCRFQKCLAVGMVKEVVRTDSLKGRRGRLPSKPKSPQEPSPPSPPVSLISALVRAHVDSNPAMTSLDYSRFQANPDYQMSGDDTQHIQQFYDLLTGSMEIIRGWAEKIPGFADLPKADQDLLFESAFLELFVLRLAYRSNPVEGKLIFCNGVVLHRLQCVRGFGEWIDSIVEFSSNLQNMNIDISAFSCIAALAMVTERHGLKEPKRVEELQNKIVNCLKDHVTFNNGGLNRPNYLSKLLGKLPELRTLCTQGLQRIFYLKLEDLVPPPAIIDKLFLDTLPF
# T1 sequence (Q96RI1 whole entry partner, one chain of several): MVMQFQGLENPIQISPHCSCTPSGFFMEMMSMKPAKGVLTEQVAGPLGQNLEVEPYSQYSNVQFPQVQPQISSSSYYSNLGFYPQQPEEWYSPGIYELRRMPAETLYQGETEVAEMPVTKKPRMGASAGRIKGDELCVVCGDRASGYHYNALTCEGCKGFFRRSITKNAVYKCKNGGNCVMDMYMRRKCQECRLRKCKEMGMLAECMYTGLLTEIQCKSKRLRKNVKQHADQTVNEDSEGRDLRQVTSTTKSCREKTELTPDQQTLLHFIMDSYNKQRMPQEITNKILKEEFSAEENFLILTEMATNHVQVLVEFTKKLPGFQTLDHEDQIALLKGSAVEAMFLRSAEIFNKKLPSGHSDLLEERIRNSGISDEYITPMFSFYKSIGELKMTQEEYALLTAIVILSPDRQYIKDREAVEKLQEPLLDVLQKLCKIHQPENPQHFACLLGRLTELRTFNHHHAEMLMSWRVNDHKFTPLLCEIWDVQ
# RARγ, sequence (P13631 whole entry, species assumed): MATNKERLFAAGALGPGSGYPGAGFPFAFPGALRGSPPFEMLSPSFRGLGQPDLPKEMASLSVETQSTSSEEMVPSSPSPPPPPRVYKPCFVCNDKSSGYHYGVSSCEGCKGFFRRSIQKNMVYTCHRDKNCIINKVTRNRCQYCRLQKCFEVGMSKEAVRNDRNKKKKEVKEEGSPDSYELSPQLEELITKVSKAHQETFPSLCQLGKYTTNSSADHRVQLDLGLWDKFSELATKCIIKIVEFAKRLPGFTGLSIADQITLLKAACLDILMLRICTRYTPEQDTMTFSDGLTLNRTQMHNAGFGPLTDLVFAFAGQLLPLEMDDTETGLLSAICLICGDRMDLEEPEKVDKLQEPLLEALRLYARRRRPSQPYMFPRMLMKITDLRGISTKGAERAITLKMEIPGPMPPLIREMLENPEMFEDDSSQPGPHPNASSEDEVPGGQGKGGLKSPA
# T6 sequence (P10276 whole entry, species assumed): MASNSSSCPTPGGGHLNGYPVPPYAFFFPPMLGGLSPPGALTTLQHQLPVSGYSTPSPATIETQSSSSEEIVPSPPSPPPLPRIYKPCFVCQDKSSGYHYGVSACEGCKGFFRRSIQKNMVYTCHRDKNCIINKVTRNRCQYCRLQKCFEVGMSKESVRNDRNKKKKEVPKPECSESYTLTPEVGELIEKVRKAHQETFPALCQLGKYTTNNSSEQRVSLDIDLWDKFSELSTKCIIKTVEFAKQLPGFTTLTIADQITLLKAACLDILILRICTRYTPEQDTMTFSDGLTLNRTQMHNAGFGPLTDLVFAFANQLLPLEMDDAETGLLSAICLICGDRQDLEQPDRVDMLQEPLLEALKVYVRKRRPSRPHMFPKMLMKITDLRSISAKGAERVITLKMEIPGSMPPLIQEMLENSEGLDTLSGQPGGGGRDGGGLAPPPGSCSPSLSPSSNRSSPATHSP
smiles,measurement,setting,value
"CC(/C=C/[C@@H]1C[C@]1(C)c1ccc2c(c1)C(C)(C)CCC2(C)C)=C\C(=O)O [IRX4204, 3,7-dimethyl-6(S),7(S)-methano,7-[1,1,4,4-tetramethyl-1,2,3,4-tetrahydronaphth-7-yl]2(E),4(E) heptadienoic acid]",production of IL-17,Th17 cells; 1 nM,profoundly inhibits production of IL-17
same,activation of FXR/RXR heterodimer,FXR/RXR,not to transactivate; also recorded: does not activate
same,activation of LXRα/RXR heterodimer,LXRα/RXR,not to transactivate; also recorded: does not activate
same,activation of LXRβ/RXR heterodimer,LXRβ/RXR,not to transactivate; also recorded: does not activate
same,"EAE disease overall, dose titration",EAE in B6 mice,significantly less disease overall
same,"CCR6 expression on CD4 T cells, spleen",EAE in B6 mice; 200 µg/day,lowered
same,co-expression of IFNg and IL-17A by CD4 T cells in CNS,EAE in B6 mice; 200 µg/day,not significantly different between groups
same,"frequency of CD4+ CD25hi cells, spleen",EAE in B6 mice; 200 µg/day,not altered
same,"number of CD4+ CD25hi cells, spleen",EAE in B6 mice; 200 µg/day,reduced
same,"total number of effector and memory CD4 T cells (CD44), spleen",EAE in B6 mice; 200 µg/day,decreased
same,total number of infiltrating CD4 T cells in the CNS,EAE in B6 mice; 200 µg/day,reduced
same,"total number of recently activated CD4 T cells (CD69 and CD44), spleen",EAE in B6 mice; 200 µg/day,also decreased
same,IFNγ production by CNS infiltrating lymphocytes,EAE in B6 mice; [1],significantly reduced
same,TNF production by CNS infiltrating lymphocytes,EAE in B6 mice; [1],significantly reduced
same,concentration at which transactivation of the Nurr1/RXR heterodimer is apparent,Nurr1/RXR heterodimer,100 pM
same,concentration sufficient to achieve full activation of Nurr1/RXR,Nurr1/RXR heterodimer,1 nM
same,activation of the Nurr1/RXR heterodimer,Nurr1/RXR heterodimer,selectively activates
"CCOC(=O)/C=C(C)/C=C/[C@@H]1C[C@]1(C)c1ccc2c(c1)C(C)(C)CCC2(C)C [IRX4204EE, 3,7-dimethyl-6(S),7(S)-methano,7-[1,1,4,4-tetramethyl-1,2,3,4-tetrahydronaphth-7-yl]2(E),4(E) heptadienoic ethyl ester]","inhibiting the differentiation of Th17 cells, relative to parent form",Th17 cells; in vitro cell culture,less active than its parent form
same,activation of FXR/RXR heterodimer,FXR/RXR,very little activity
same,activation of LXRα/RXR heterodimer,LXRα/RXR,very little activity
same,activation of LXRβ/RXR heterodimer,LXRβ/RXR,very little activity
same,"EAE disease overall, dose titration",EAE in B6 mice,more active than IRX4204 at each of the doses tested
same,Ki,RXRγ,> 1000 nM
same,Ki,RXRα,> 1000 nM
same,Ki,RXRβ,> 1000 nM
same,Ki,RARγ,> 1000 nM
same,Ki,RARα,> 1000 nM
same,activation of the Nurr1/RXR heterodimer,Nurr1/RXR heterodimer,very little activity
